# Experimental data published in article PMC6286256 (Cancer chemotherapy and pharmacology, 2018).
# Legend:
# [1] = test system: patients with advanced solid tumors; experiment: Safety and tolerability; format: in vivo, human; conditions: single-agent SDS sachet cohort, all doses, 61 patients
# [2] = human, in vivo
# [3] = test system: advanced solid tumors; experiment: Best overall response, all patients; format: in vivo, human; conditions: single agent and combination
# [4] = test system: patients with advanced solid tumors; conditions: single-agent BEZ235, oral once daily, continuous 28-day cycles
# [5] = test system: mTOR; conditions: cellular assays; cited from earlier work
# [6] = test system: PI3K/mTOR; conditions: cellular assays; cited from earlier work
# [7] = test system: solid tumors; conditions: cited from earlier work
SMILES,"Diarrhea, frequency [1]","Nausea, frequency [1]","Vomiting, frequency [1]",Bioavailability [2],Patients with PR as best overall response ([3]; 5 patients),Patients with SD as best overall response ([3]; 62 patients),MTD [4],concentration at which mTOR inhibition predominates [5],concentration at which dual PI3K/mTOR blockade is observed [6],Incidence of stomatitis [7]
Cn1c(=O)n(-c2ccc(C(C)(C)C#N)cc2)c2c3cc(-c4cnc5ccccc5c4)ccc3ncc21 [BEZ235],75.4%,80.3%,63.9%,low bioavailability,2.7%,33.9%,1200 mg/day,< 100 nmol/L,≈ 500 nmol/L,
CO[C@H]1C[C@@H]2CC[C@@H](C)[C@@](O)(O2)C(=O)C(=O)N2CCCC[C@H]2C(=O)O[C@H]([C@H](C)C[C@@H]2CC[C@@H](OCCO)[C@H](OC)C2)CC(=O)[C@H](C)/C=C(\C)[C@@H](O)[C@@H](OC)C(=O)[C@H](C)C[C@H](C)/C=C/C=C/C=C/1C [everolimus],,,,,,,,,,59–71%
